Laboratory results: patent US8916599B2, “1H-benz imidazole-5-carboxamides as anti-inflammatory agents” (Orexo AB, priority 2008, dated 2014)

Legend:
[1] = biological target: T1, recombinant human mPGES-1 (Homo sapiens, UniProt O14684); test: mPGES-1 inhibition test (microsomes, PGH2 substrate, HTRF detection of PGE2); type: biochemical; conditions: inhibition of mPGES-1 at 10 μM
T1 construct: made in house; host or cells: Rosetta E. coli (microsomal/membrane fraction)
T1 sequence (O14684 1-152): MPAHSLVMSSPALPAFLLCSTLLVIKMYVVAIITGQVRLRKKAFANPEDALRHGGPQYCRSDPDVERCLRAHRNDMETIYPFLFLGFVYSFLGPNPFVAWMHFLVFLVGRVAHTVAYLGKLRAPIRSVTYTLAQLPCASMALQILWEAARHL
Outline: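 First, inhibitor is incubated with microsomal enzyme from Rosetta E. coli in KPi pH 7.4 containing 2.5 mM GSH for 25 minutes at room temperature. Next, PGH2 is added and stopped after one minute with FeCl2 stop solution. Finally, diluted samples undergo HTRF PGE2 quantification.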

inhibition at 10 µM [1] | melting point | Structure (SMILES)
97% | 175 to 176 °C | Cn1c(Nc2c(Cl)cccc2Cl)nc2cc(C(=O)Nc3cccc(Cl)c3)ccc21 [Example 297, 2-(2,6-Dichloro-phenylamino)-1-methyl-1H-benzimidazole-5-carboxylic acid (3-chloro-phenyl)-amide]
91% | 143 to 145 °C | O=C(Nc1ccccc1C(F)(F)F)c1ccc2[nH]c(Nc3c(Cl)cccc3Cl)nc2c1 [Example 113, 2-(2,6-Dichloro-phenylamino)-1H-benzimidazole-5-carboxylic acid (2-trifluoromethyl-phenyl)-amide]
95% | 157 to 159 °C | Cc1ccnc(NC(=O)c2ccc3c(c2)nc(Nc2c(Cl)cccc2Cl)n3C)c1 [Example 335, 2-(2,6-Dichloro-phenylamino)-1-methyl-1H-benzimidazole-5-carboxylic acid (4-methyl-pyridin-2-yl)-amide]
90% | 183 to 185 °C | O=C(Nc1ccc(Br)cn1)c1ccc2[nH]c(Nc3c(Cl)cccc3Cl)nc2c1 [Example 303, 2-(2,6-Dichloro-phenylamino)-1H-benzimidazole-5-carboxylic acid (5-bromo-pyridin-2-yl)-amide]
98% | 179 to 182 °C | O=C(Nc1cc(C(F)(F)F)ccn1)c1ccc2[nH]c(Nc3c(Cl)cccc3Cl)nc2c1 [Example 304, 2-(2,6-Dichloro-phenylamino)-1H-benzimidazole-5-carboxylic acid (4-trifluoromethyl-pyridin-2-yl)-amide]
82% | 241 to 243 °C | O=C(Nc1ccc(Br)cc1)c1ccc2[nH]c(Nc3ccccc3OC(F)(F)F)nc2c1 [Example 106, 2-(2-Trifluoromethoxy-phenylamino)-1H-benzimidazole-5-carboxylic acid (4-bromo-phenyl)-amide]
100% | 301 to 303 °C | O=C(Nc1nc(C(F)(F)F)cs1)c1ccc2[nH]c(Nc3c(Cl)cccc3Cl)nc2c1 [Example 319, 2-(2,6-Dichloro-phenylamino)-1H-benzimidazole-5-carboxylic acid (4-trifluoro-methyl-thiazol-2-yl)-amide]
87% | 245 to 247 °C | O=C(Nc1ccccn1)c1ccc2[nH]c(Nc3c(Cl)cccc3Cl)nc2c1 [Example 293, 2-(2,6-Dichloro-phenylamino)-1H-benzimidazole-5-carboxylic acid pyridin-2-ylamide]
100% | 267 to 269 °C | Cc1c(Cl)cccc1NC(=O)c1ccc2[nH]c(Nc3c(Cl)cccc3Cl)nc2c1 [Example 280, 2-(2,6-Dichloro-phenylamino)-1H-benzimidazole-5-carboxylic acid (3-chloro-2-methyl-phenyl)-amide]
91% | 234 to 236 °C | Cn1c(Nc2c(Cl)cccc2Cl)nc2cc(C(=O)Nc3ccc(C#N)cn3)ccc21 [Example 544, N-(5-Cyanopyridin-2-yl)-2-(2,6-dichlorophenylamino)-1-methyl-1H-benzimidazole-5-carboxamide]
99% | 176 to 178 °C | O=C(NCc1ccccc1C(F)(F)F)c1cc(Br)c2[nH]c(Nc3c(Cl)cccc3Cl)nc2c1 [Example 350, 7-Bromo-2-(2,6-dichloro-phenylamino)-1H-benzimidazole-5-carboxylic acid 2-trifluoromethyl-benzylamide]
96% | 178 to 180 °C | Cc1ccc(Cl)cc1NC(=O)c1ccc2[nH]c(Nc3c(Cl)cccc3Cl)nc2c1 [Example 110, 2-(2,6-Dichloro-phenylamino)-1H-benzimidazole-5-carboxylic acid (5-chloro-2-methyl-phenyl)-amide]
86% | 185 to 187 °C | COCCOc1cccc(NC(=O)c2ccc3c(c2)nc(Nc2c(Cl)cccc2Cl)n3C)n1 [Example 302, 2-(2,6-Dichloro-phenylamino)-1-methyl-1H-benzimidazole-5-carboxylic acid [6-(2-methoxy-ethoxy)-pyridin-2-yl]-amide]
92% | – | CCOc1cc2[nH]c(Nc3c(Cl)ccc(Cl)c3F)nc2cc1C(=O)N[C@H]1CC[C@H](C(F)(F)F)CC1 [Example 599, 2-(3,6-Dichloro-2-fluoro-phenylamino)-6-ethoxy-N-(trans-4-trifluoromethyl-cyclohex-1-yl)-1H-benzimidazole-5-carboxamide]
100% | – | O=C(Nc1cc(Cl)ccn1)c1cc2[nH]c(Nc3c(Cl)cccc3Cl)nc2cc1F [Example 142, 2-(2,6-Dichloro-phenylamino)-6-fluoro-3H-benzimidazole-5-carboxylic acid (4-chloro-pyridin-2-yl)-amide]
99% | – | Cn1c(Nc2cc(C(N)=O)ccc2Cl)nc2cc(C(=O)Nc3ccc(Br)cc3)ccc21 [Example 537, N-(4-Bromophenyl)-2-(5-carbamoyl-2-chlorophenylamino)-1-methyl-1H-benzimidazole-5-carboxamide]
100% | – | O=C(N[C@H]1CC[C@@H](C(F)(F)F)CC1)c1ccc2[nH]c(Nc3c(Cl)cccc3Cl)nc2c1 [Example 168, 2-(2,6-Dichloro-phenylamino)-1H-benzimidazole-5-carboxylic acid (cis-4-trifluoromethyl-cyclohexyl)-amide]
